# What was measured:
# [1] = Dynamic light scattering (DLS) of LNP preparations: size (diameter) and polydispersity; format: physicochemical; conditions: for AVG PDI / AVG Z Dia (nm): Table A, LNP 47.5% Ionizable Lipid:40% cholesterol:2.5% PEG-2000 DMG:10% DPSC, N/P 4.5-6
# Method: A ratio of aqueous to organic solvent of approximately 2:1 or 3:1 was maintained during mixing using differential flow rates. After mixing, LNP preparations were collected, diluted in phosphate buffer saline (PBS) or Tris-buffered saline (TBS) (approximately 1:1 v/v). Further buffer exchange was conducted using dialysis in PBS or TBS at 4° C. for 4 to 24 hours against a 20 kDa filter. After this initial dialysis, each individual LNP preparation may be characterized via dynamic light scattering (DLS) to measure the size (e.g., diameter) and polydispersity. LNP preparations falling within specific diameter and polydispersity ranges were pooled, and further dialyzed against PBS or TBS at 4° C. for 1 to 4 hours against a 100 kDa dialysis cassette. After the second dialysis, LNP preparations were sterile filtered using 0.22 μm filter and stored at 4° C. for further use.
# (§1) LNP preparations are formed by microfluidic mixing of the lipid and NA solutions using a Precision Nanosystems NanoAssemblr Ignite Instrument, according to the manufacturer's protocol. A 3:1 ratio of aqueous to organic solvent is maintained during mixing using differential flow rates. After mixing, LNP preparations are collected, diluted in PBS (approximately 2:1 v/v), and further buffer exchange is conducted using dialysis in PBS at 4° C. for 8 to 24 hours against a 20 kDa filter. After this initial dialysis, each individual LNP preparation is characterized via dynamic light scattering (DLS) to measure size and polydispersity. pKa of a subpopulation of LNP preparations is measured via TNS assay. After dialysis, LNP preparations are sterile filtered using 0.22 micron sterile filter and stored at 4° C. for further use. In some embodiments, LNP preparations may be concentrated using 100 kDa Amicon filters per manufacturer's protocol.
# DLS-LNP preparation hydrodynamic diameter and polydispersity index (PDI) is measured using high throughput dynamic light scattering (DLS) (DynaPro plate reader II, Wyatt). LNP preparations are diluted 1×PBS to an appropriate concentration and analyzed.
# [2] = Encapsulation efficiency of LNP preparations (unlysed and lysed LNPs); format: physicochemical; conditions: for AVG EE(%): Table A, LNP 47.5% Ionizable Lipid:40% cholesterol:2.5% PEG-2000 DMG:10% DPSC, N/P 4.5-6, NA cargo with barcode
# Method: Concentration of NA is determined by Qubit microRNA kit (for siRNA) or HS RNA kit (for mRNA) per manufacturer's instructions. Encapsulation efficiency is determined by measuring unlysed and lysed LNPs.
# ALAS1 target site = experiment: In vivo base editing with LNP-delivered ABE mRNA and sgRNA targeting ALAS1; conditions: Balb/c mice, IV tail vein, 4 days after dosing; for Liver Editing A->G (%): ALAS1, liver; for Quadracept Editing A->G (%): ALAS1, Quadracept (muscle)
# Method: Exemplary LNP preparations are selected to determine each preparation's ability to perform base editing in a Balb/C mouse model as described herein.
# Lipid nanoparticle components are dissolved in 100% ethanol at specified lipid component molar ratios. mRNA encoding an adenine base editor and a chemically-modified sgRNA is dissolved at a mass ratio of 1:1 in 10 mM citrate, 100 mM NaCl, pH 4.0, resulting in a concentration of NA cargo of approximately 0.22 mg/mL. LNP preparations are formulated with molar ratios of either 50% Ionizable Lipid:38.5% Cholesterol:1.5% PEG2000-DMG: 10% DSPC or 47.5% Ionizable Lipid:40% Cholesterol:2.5% PEG2000-DMG: 10% DSPC both at a total lipid to NA molar ratio of 6.
# as §1
# Male Balb/C mice aged approximately 8-12 weeks are used in the experiments described herein. Each mouse is temporarily restrained, and LNP preparations are administered IV via tail vein injection. Age-matched mice are also used to administer vehicle (1×PBS) via tail vein injection as a control. Four to six days post-dose, tissues including liver, spleen, heart and muscle are collected (only liver and muscle (quardracept) are reported). Genomic DNA is isolated and fragmented and adapter-ligated using the Nextera DNA Flex Library Prep Kit (Illumina) using the 96-well plate Nextera indexing primers (Illumina), according to the manufacturer's instructions. Library size and concentration is confirmed by Fragment Analyzer (Agilent) and sent to Novogene for whole genome sequencing using an Illumina HiSeq.
# For base editing, mRNA encoding an adenine base editor (ABE) and a guide RNA (sgRNA) targeting ALAS1 at 1:1 (mass ratio) are coencapsulated in LNP preparations as described herein. LNP preparations are administrated into Balb/c mice through tail vein injections at concentrations ranging from 0.05 to 3.0 mg/kg total RNA. At 4 days after dosing, mice are euthanized and liver, spleen and bone barrow are harvested. Base editing is determined by performing targeted deep sequencing analysis at the ALAS1 target site using extracted genomic DNA.
# [3] = pKa of LNP preparations via TNS assay; format: physicochemical; conditions: Table D; LNP formulation ratio 47.5:40:2.5:10
# Method: as §1
# [4] = Table C, LNP formulation ratio 47.5:40:2.5:10, ABE mRNA + ALAS1 sgRNA 1:1
# [5] = Table D, LNP formulation ratio 47.5:40:2.5:10, ABE mRNA + PCSK9 sgRNA 1:1
Compound,"Diameter (nm) [1, 4]","PDI (%) [1, 4]","EE (%) [2, 4]","Diameter (nm) [1, 5]","EE (%) [2, 5]",pKa [3],other results
"7,7′-bis(2-(pent-4-en-1-yl)hept-6-en-1-yl) O′1,O1-(2-(((4-(((2-(pyrrolidin-1-yl)ethyl)carbamoyl)oxy)decanoyl)oxy)methyl)propane-1,3-diyl) di(heptanedioate) [Example 4]",124.45 nm,10.6%,87.2%,,,,Liver Editing A->G (%) (ALAS1 target site; Dose 0.05 MPK total RNA): 1.59%
"C=CCCCCCC(CCCCCC=C)OC(=O)CCCCCC(=O)OCC(COC(=O)CCCCCC(=O)OC(CCCCCC=C)CCCCCC=C)COC(=O)CCC(CCCCC)OC(=O)NCCN1CCCC1 (stereo not shown) [Example 2, 7,7′-di(pentadeca-1,14-dien-8-yl) O′1,O1-(2-(((4-(((2-(pyrrolidin-1-yl)ethyl)carbamoyl)oxy)nonanoyl)oxy)methyl)propane-1,3-diyl) di(heptanedioate)]",64.4 nm,8.2%,95.75%,,,,AVG PDI [1]: 0.09; AVG Z Dia (nm) [1]: 78.76 nm; AVG EE(%) [2]: 90.7%; Quadracept Editing A->G (%) (ALAS1 target site; Dose 1.5 MPK total RNA): 1.7%; Liver Editing A->G (%) (ALAS1 target site; Dose 1.5 MPK total RNA): 86.3%
"C=CCCCCCC(CCCCCC=C)COC(=O)CCCCC(=O)OCC(COC(=O)CCCCC(=O)OCC(CCCCCC=C)CCCCCC=C)COC(=O)CCC(CCCCCC)OC(=O)NCCN1CCCC1 (stereo not shown) [Example 5, bis(2-(hept-6-en-1-yl)non-8-en-1-yl) O,O′-(2-(((4-(((2-(pyrrolidin-1-yl)ethyl)carbamoyl)oxy)decanoyl)oxy)methyl)propane-1,3-diyl) diadipate]",64.5 nm,8.2%,95.84%,,,,AVG PDI [1]: 0.08; AVG Z Dia (nm) [1]: 79.74 nm; AVG EE(%) [2]: 93.9%; Quadracept Editing A->G (%) (ALAS1 target site; Dose 1.5 MPK total RNA): 1.5%; Liver Editing A->G (%) (ALAS1 target site; Dose 1.5 MPK total RNA): 79.8%
"CC/C=C\CCCC(CCC/C=C\CC)OC(=O)CCCCCC(=O)OCC(COC(=O)CCCCCC(=O)OC(CCC/C=C\CC)CCC/C=C\CC)COC(=O)CCC(CCCCCC)OC(=O)NCCN1CCCC1 (stereo not shown) [Example 6, 7,7′-di((3Z,12Z)-pentadeca-3,12-dien-8-yl) O′1,O1-(2-(((4-(((2-(pyrrolidin-1-yl)ethyl)carbamoyl)oxy)decanoyl)oxy)methyl)propane-1,3-diyl) di(heptanedioate)]",71 nm,10.8%,95.5%,,,,Quadracept Editing A->G (%) (ALAS1 target site; Dose 1.5 MPK total RNA): 2.5%; Liver Editing A->G (%) (ALAS1 target site; Dose 1.5 MPK total RNA): 88.7%
"CCCCCCC(CCC(=O)OCC(COC(=O)CCCCCC(=O)OC/C=C(\C)CCC=C(C)C)COC(=O)CCCCCC(=O)OC/C=C(\C)CCC=C(C)C)OC(=O)NCCN1CCCC1 (stereo not shown) [Example 7, 1-(2E)-3,7-dimethylocta-2,6-dien-1-yl 7-{3-[(7-{[(2E)-3,7-dimethylocta-2,6-dien-1-yl]oxy}-7-oxoheptanoyl)oxy]-2-({[4-({[2-(pyrrolidin-1-yl)ethyl]carbamoyl}oxy)decanoyl]oxy}methyl)propyl}heptanedioate]",,,,134.3 nm,91.7%,7.17,
"CCCCCCC(CCC(=O)OCC(COC(=O)CCCCCC(=O)OCCC(C)CCCC(C)C)COC(=O)CCCCCC(=O)OCCC(C)CCCC(C)C)OC(=O)NCCN1CCCC1 (stereo not shown) [Example 8, 1-(3,7-Dimethyloctyl)-7-[3-({7-[(3,7-dimethyloctyl)oxy]-7-oxoheptanoyl}oxy)-2-({[4-({[2-(pyrrolidin-1-yl)ethyl]carbamoyl}oxy)decanoyl]oxy}methyl)propyl]heptanedioate]",,,,110.35 nm,94.3%,6.74,
"CCCCCCC(CCC(=O)OCC(COC(=O)CCCCCC(=O)OCCC(C)CCC=C(C)C)COC(=O)CCCCCC(=O)OCCC(C)CCC=C(C)C)OC(=O)NCCN1CCCC1 (stereo not shown) [Example 9, 1-(3,7-dimethyloct-6-en-1-yl) 7-[3-({7-[(3,7-dimethyloct-6-en-1-yl)oxy]-7-oxoheptanoyl}oxy)-2-({[4-({[2-(pyrrolidine-1-yl)ethyl]carbamoyl}oxy)decanoyl]oxy}methyl)propyl]heptanedioate]",,,,148.65 nm,85.3%,6.85,
"C=CC(C)(CCC=C(C)C)OC(=O)CCCCCC(=O)OCC(COC(=O)CCCCCC(=O)OC(C)(C=C)CCC=C(C)C)COC(=O)CCC(CCCCCC)OC(=O)NCCN1CCCC1 (stereo not shown) [Example 10, 1-(3,7-dimethylocta-1,6-dien-3-yl)-7-[3-({7-[(3,7-dimethylocta-1,6-dien-3-yl)oxy]-7-oxoheptanoyl}oxy)-2-({[4-({[2-(pyrrolidin-1-yl)ethyl]carbamoyl}oxy)decanoyl]oxy}methyl)propyl]heptanedioate]",,,,135.28 nm,99.1%,6.814,
"CCCCCCC(CCC(=O)OCC(COC(=O)CCCCCC(=O)OC/C=C(/C)CCC=C(C)C)COC(=O)CCCCCC(=O)OC/C=C(/C)CCC=C(C)C)OC(=O)NCCN1CCCC1 (stereo not shown) [Example 11, 1-(2Z)-3,7-dimethylocta-2,6-dien-1-yl-7-{3-[(7-{[(2Z)-3,7-dimethylocta-2,6-dien-1-yl]oxy}-7-oxoheptanoyl)oxy]-2-({[4-({[2-(pyrrolidin-1-yl)ethyl]carbamoyl}oxy)decanoyl]oxy}methyl)propyl}heptanedioate]",,,,152.05 nm,90.5%,6.85,
"C=C(C)C(CC=C(C)C)COC(=O)CCCCCC(=O)OCC(COC(=O)CCCCCC(=O)OCC(CC=C(C)C)C(=C)C)COC(=O)CCC(CCCCCC)OC(=O)NCCN1CCCC1 (stereo not shown) [Example 12, 1-[5-methyl-2-(prop-1-en-2-yl)hex-4-en-1-yl]-7-(2-{[(7-{[5-methyl-2-(prop-1-en-2-yl)hex-4-en-1-yl]oxy}-7-oxoheptanoyl)oxy]methyl}-3-{[4-({[2-(pyrrolidin-1-yl)ethyl]carbamoyl}oxy)decanoyl]oxy}propyl) heptanedioate]",,,,163 nm,87.7%,6.68,
"Bis(2-(pent-4-en-1-yl)hept-6-en-1-yl) O,O′-(2-(((4-(((2-(118yrrolidine-1-yl)ethyl)carbamoyl)oxy)decanoyl)oxy)methyl)propane-1,3-diyl) diadipate [Example 3]",140.85 nm,5.5%,82.63%,,,,

# — patent US20260176252A1, “IONIZABLE LIPIDS WITH BRANCHED HEAD GROUPS” (Beam Therapeutics Inc., priority 2023, published 2026)
